Source: patent US20260166012A1 (MEDINNO PHARMACEUTICAL TECHNOLOGY (ZHUHAI) CO., LTD., priority 2023, published 2026)

Tests used:
TYK2 = biological target: T1, TYK2 (Homo sapiens, UniProt P29597); test: ADP-Glo kinase inhibition assay, TYK2
T1 sequence (P29597 897-1187 limits assumed): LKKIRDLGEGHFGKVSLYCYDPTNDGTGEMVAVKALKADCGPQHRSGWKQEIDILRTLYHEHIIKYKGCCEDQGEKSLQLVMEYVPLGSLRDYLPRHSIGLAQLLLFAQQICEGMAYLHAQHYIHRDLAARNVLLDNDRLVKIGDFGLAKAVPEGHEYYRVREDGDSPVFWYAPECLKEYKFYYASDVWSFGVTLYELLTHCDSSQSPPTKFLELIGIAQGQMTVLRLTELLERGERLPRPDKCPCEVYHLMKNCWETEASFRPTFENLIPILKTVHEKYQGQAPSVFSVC
Excerpt: (§1) A drug screening system based on kinases JAK1, JAK2, JAK3, and TYK2 was used to detect the inhibitory ability of small molecule compounds on kinase activity. A kinase undergoes an enzymatic reaction with its substrates IRS1, IGF1Rtide, and Poly (4:1 Glu, Tyr), consuming ATP to produce ADP, wherein the ADP-Glo reagent and luminescence method were used to detect the amount of the product to reflect the activity of the kinase.
(§2) For TYK2 inhibition activity testing, the starting concentration was 10 μM with 1:4 serial dilution. Test compounds were used at a starting concentration of 0.5 μM with 1:4 serial dilution.
(§3) Transfer 4 μL of ADP-Glo reagent to the 384-well plate, which was centrifuged at 1000 rpm for 1 minute, and incubated at 25° C. for 40 minutes.
(§4) Transfer 8 μL of the test solution to the 384-well plate, which was centrifuged at 1000 rpm for 1 minute, and incubated at 25° C. for 40 minutes.
(§5) Read luminescence signals using a multimode microplate reader.
(§6) [formula] • Negative Control: DMSO • Positive Control: Tofacitinib
(§7) The following nonlinear regression equation was used to determine the compound's IC50(half-maximal inhibitory concentration). Data analysis was performed using GraphPad Prism 7.0 software.
(§8) [formula] • X: Logarithm of compound concentration; and Y: Inhibition rate (% Inhibition)

JAK2 = JAK2 (Homo sapiens, UniProt O60674); test: ADP-Glo kinase inhibition assay, JAK2
Excerpt: as §1, §2, §3, §4, §5, §6, §7, §8

JAK1 = JAK1 (Homo sapiens, UniProt P23458); test: ADP-Glo kinase inhibition assay, JAK1
Excerpt: as §1, §2, §3, §4, §5, §6, §7, §8

JAK3 = JAK3 (Homo sapiens, UniProt P52333); test: ADP-Glo kinase inhibition assay, JAK3
Excerpt: as §1, §2, §3, §4, §5, §6, §7, §8

[1] = tested on: itching caused by allergic dermatitis; details: dogs, cited from earlier work

Chain of JAK3 (P52333 795-1124 limits assumed): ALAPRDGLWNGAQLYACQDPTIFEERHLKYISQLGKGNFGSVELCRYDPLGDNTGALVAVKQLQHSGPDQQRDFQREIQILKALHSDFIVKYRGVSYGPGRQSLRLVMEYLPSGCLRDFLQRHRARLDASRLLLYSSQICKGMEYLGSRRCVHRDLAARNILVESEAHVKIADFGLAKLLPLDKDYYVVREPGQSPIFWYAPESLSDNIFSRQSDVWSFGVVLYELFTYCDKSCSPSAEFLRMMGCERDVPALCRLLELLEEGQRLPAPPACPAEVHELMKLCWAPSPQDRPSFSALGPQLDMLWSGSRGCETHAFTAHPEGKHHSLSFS
Chain of JAK2 (O60674 826-1132 limits assumed): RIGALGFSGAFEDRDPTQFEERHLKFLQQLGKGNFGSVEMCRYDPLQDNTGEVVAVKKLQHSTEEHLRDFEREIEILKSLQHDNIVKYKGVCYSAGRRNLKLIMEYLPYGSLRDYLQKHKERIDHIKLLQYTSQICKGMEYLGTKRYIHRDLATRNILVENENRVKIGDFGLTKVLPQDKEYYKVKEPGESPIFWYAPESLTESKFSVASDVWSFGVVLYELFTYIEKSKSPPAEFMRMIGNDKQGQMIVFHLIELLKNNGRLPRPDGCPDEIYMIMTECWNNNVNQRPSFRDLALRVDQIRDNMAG
Chain of JAK1 (P23458 850-1154 limits assumed): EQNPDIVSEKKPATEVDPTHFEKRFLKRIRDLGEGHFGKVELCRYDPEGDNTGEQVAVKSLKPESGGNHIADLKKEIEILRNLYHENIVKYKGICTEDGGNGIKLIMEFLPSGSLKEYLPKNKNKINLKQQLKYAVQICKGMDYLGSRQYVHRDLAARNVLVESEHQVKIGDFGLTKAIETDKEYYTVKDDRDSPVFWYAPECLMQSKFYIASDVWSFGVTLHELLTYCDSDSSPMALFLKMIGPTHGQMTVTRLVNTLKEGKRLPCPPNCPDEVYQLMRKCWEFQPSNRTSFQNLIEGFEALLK

Compound	IC50 (TYK2) [nM]	IC50 (JAK2) [nM]	IC50 (JAK1) [nM]	IC50 (JAK3) [nM]	experimental animals that alleviated the itching response by more than 50% ([1]; on the 7th day)	time to relieve itching ([1]; oral 0.4-0.6 mg/kg twice a day) [h]
[2H]C([2H])([2H])c1cc(O)c(F)cc1-c1ccc2c(-c3nc4c([nH]3)CN(CC(C)O)C4)n[nH]c2c1 (stereo in doubt) [Compound 28]	6.4	0.05	0.43	1	–	–
[2H]C([2H])([2H])c1cc(O)c(F)cc1-c1ccc2c(-c3nc4c([nH]3)CN(C(=O)C3CC3)C4)n[nH]c2c1 [Compound 2, Cyclopropyl (2-(6-(5-fluoro-4-hydroxy-2-(methyl-d3)phenyl)-1H-indazol-3-yl)-4,6-dihydropyrrolo[3,4-d]imidazol-5(1H)-yl) ketone]	1.2	0.017	0.19	0.28	–	–
[2H]C([2H])([2H])C([2H])([2H])c1cc(O)c(F)cc1-c1ccc2c(-c3nc4c([nH]3)CN(C(=O)N3CC[C@H](O)C3)C4)n[nH]c2c1 [Compound 3, (S)-(2-(6-(2-(Ethyl-d5)-5-fluoro-4-hydroxyphenyl)-1H-indazol-3-yl)-4,6-dihydropyrrolo[3,4-d]imidazol-5(1H)-yl) (3-hydroxypyrrolidin-1-yl) ketone methanesulfonate]	0.022	0.015	0.0072	0.044	–	–
[2H]C([2H])([2H])c1cc(O)c(F)cc1-c1ccc2c(-c3nc4c([nH]3)CN(C(=O)NC[C@H](C)O)C4)n[nH]c2c1 [Compound 4, (S)-2-(6-(5-Fluoro-4-hydroxy-2-(methyl-d3)phenyl)-1H-indazol-3-yl)-N-(2-hydroxypropyl)-4,6-dihydropyrrolo[3,4-d]imidazole-5(1H)-carboxamide]	1	0.015	0.1	0.26	–	–
[2H]C([2H])([2H])c1cc(O)c(F)cc1-c1ccc2c(-c3nc4c([nH]3)CN(C(=O)NCCCO)C4)n[nH]c2c1 [Compound 7, 2-(6-(5-Fluoro-4-hydroxy-2-(methyl-d3)phenyl)-1H-indazol-3-yl)-N-(3-hydroxypropyl)-4,6-dihydropyrrolo[3,4-d]imidazole-5(1H)-carboxamide]	0.53	0.014	0.07	0.25	–	–
[2H]C([2H])([2H])c1cc(O)c(F)cc1-c1ccc2c(-c3nc4c([nH]3)CN(C)C4)n[nH]c2c1 [Compound 12, 2-Fluoro-5-(methyl-d3)-4-(3-(5-methyl-1,4,5,6-tetrahydropyrrolo[3,4-d]imidazol-2-yl)-1H-indazol-6-yl)phenol]	–	–	1.8	–	–	–
[2H]C([2H])([2H])c1cc(O)c(F)cc1-c1ccc2c(-c3nc4c([nH]3)CN(C(=O)OC)C4)n[nH]c2c1 [Compound 18]	–	0.61	–	–	–	–
[2H]C([2H])([2H])C([2H])([2H])c1cc(O)c(F)cc1-c1ccc2c(-c3nc4c([nH]3)CN(C(=O)N(C)C)C4)n[nH]c2c1 [Compound 32]	0.3	0.032	0.025	0.2	–	–
CNS(=O)(=O)C[C@H]1CC[C@H](N(C)c2ncnc3[nH]ccc23)CC1 [Olatinib]	–	–	–	–	more than 70%	≤ 24

Continued by falling IC50 (JAK2), values first:

IC50 (TYK2) [nM]	IC50 (JAK2) [nM]	IC50 (JAK1) [nM]	IC50 (JAK3) [nM]	Compound	experimental animals that alleviated the itching response by more than 50% ([1]; on the 7th day)	time to relieve itching ([1]; oral 0.4-0.6 mg/kg twice a day) [h]
0.8	0.013	0.096	0.2	[2H]C([2H])([2H])c1cc(O)c(F)cc1-c1ccc2c(-c3nc4c([nH]3)CN(C(=O)NC[C@@H](C)O)C4)n[nH]c2c1 [Compound 1, (R)-2-(6-(5-Fluoro-4-hydroxy-2-(methyl-d3)phenyl)-1H-indazol-3-yl)-N-(2-hydroxypropyl)-4,6-dihydropyrrolo[3,4-d]imidazole-5(1H)-carboxamide]	–	–
0.32	0.013	0.086	0.19	[2H]C([2H])([2H])c1cc(O)c(F)cc1-c1ccc2c(-c3nc4c([nH]3)CN(C(=O)N3CC[C@H](O)C3)C4)n[nH]c2c1 [Compound 6, (S)-(2-(6-(5-Fluoro-4-hydroxy-2-(methyl-d3)phenyl)-1H-indazol-3-yl)-4,6-dihydropyrrolo[3,4-d]imidazole-5(1H)-yl)(3-hydroxypyrrolidin-1-yl)ketone]	–	–
0.43	0.012	0.077	0.22	[2H]C([2H])([2H])c1cc(O)c(F)cc1-c1ccc2c(-c3nc4c([nH]3)CN(C(=O)NC)C4)n[nH]c2c1 [Compound 13]	–	–
1.6	0.01	0.2	0.3	[2H]C([2H])([2H])c1cc(O)c(F)cc1-c1ccc2c(-c3nc4c([nH]3)CN(C(=O)NCC(C)O)C4)n[nH]c2c1 (stereo not shown) [Compound 5, 2-(6-(5-Fluoro-4-hydroxy-2-(methyl-d3)phenyl)-1H-indazol-3-yl)-N-(2-hydroxypropyl)-4,6-dihydro-pyrrolo[3,4-d]imidazole-5(1H)-carboxamide]	–	–
0.37	0.0097	0.092	0.3	[2H]C([2H])([2H])c1cc(O)c(F)cc1-c1ccc2c(-c3nc4c([nH]3)CN(C(=O)N3CCOCC3)C4)n[nH]c2c1 [Compound 10]	–	–
0.085	0.0088	0.0075	0.095	[2H]C([2H])([2H])C([2H])([2H])c1cc(O)c(F)cc1-c1ccc2c(-c3nc4c([nH]3)CN(C(=O)N3CC[C@@H](O)C3)C4)n[nH]c2c1 [Compound 35]	–	–
0.43	0.008	0.071	0.32	[2H]C([2H])([2H])c1cc(O)c(F)cc1-c1ccc2c(-c3nc4c([nH]3)CN(C(=O)N(C)C)C4)n[nH]c2c1 [Compound 9, 2-(6-(5-Fluoro-4-hydroxy-2-(methyl-d3)phenyl)-1H-indazol-3-yl)-N,N-dimethyl-4,6-dihydropyrrolo[3,4-d]imidazole-5(1H)-carboxamide]	–	–
0.3	0.005	0.032	0.18	[2H]C([2H])([2H])c1cc(O)c(F)cc1-c1ccc2c(-c3nc4c([nH]3)CN(C(=O)N3CCC(O)CC3)C4)n[nH]c2c1 [Compound 19]	–	–
0.19	0.004	0.045	0.16	[2H]C([2H])([2H])c1cc(O)c(F)cc1-c1ccc2c(-c3nc4c([nH]3)CN(C(=O)N3CC[C@@H](O)C3)C4)n[nH]c2c1 [Compound 8, (R)-(2-(6-(5-Fluoro-4-hydroxy-2-(methyl-d3)phenyl)-1H-indazol-3-yl)-4,6-dihydropyrrolo[3,4-d]imidazole-5(1H)-yl)(3-hydroxypyrrolidin-1-yl)ketone]	–	–
